Assay results as given in patent US12214058B2, “Imaging methods using deuterated compounds” (Genentech, Inc., priority 2014, dated 2025).

Experiments:
[1] = biological target: tau aggregates in AD patient tissues; conditions: cited from earlier work
[2] = Microsomal stability assay, human liver microsomes; type: in vitro ADME; conditions: for amount of remaining compound: non-radiolabeled, 40 min
Protocol: Microsomal stability assays The tracer [^18F][A]-d2 or [^18F][A] was dissolved in potassium phosphate (Kpi) buffer (100 mM) at concentration 500-600 μCi/mL. The non-radioactive 7 and 10 were dissolved in Kpi buffer at 10 μM concentration. The reaction vessel was charged with human or mouse liver microsome suspension (12.5 μL, 20 mg/mL) followed by Kpi buffer (388 μL, 10 mM), NADPH (50 μL, 10 mM) and incubated at 37° C. for 5-10 min. A solution of the radioactive [^18F][A]-d2 or [^18F][A] (50 μL, […]) or non-radioactive 7 or […] (50 μL, 10 μM) were added to the reaction vessel and the mixture was incubated at 37° C. […] The supernatant was analyzed by LCMS (System E).

[3] = Microsomal stability assay, mouse liver microsomes; type: in vitro ADME; conditions: 5 min; for fraction of unmetabolized compound: non-radiolabeled
Protocol: (§1) Microsomal stability assays The tracer [^18F][A]-d2 or [^18F][A] was dissolved in potassium phosphate (Kpi) buffer (100 mM) at concentration 500-600 μCi/mL. The non-radioactive 7 and 10 were dissolved in Kpi buffer at 10 μM concentration. The reaction vessel was charged with human or mouse liver microsome suspension (12.5 μL, 20 mg/mL) followed by Kpi buffer (388 μL, 10 mM), NADPH (50 μL, 10 mM) and incubated at 37° C. for 5-10 min. A solution of the radioactive [^18F][A]-d2 or [^18F][A] (50 μL, 250-300 μCi) or non-radioactive 7 or 8 (50 μL, 10 μM) were added to the reaction vessel and the mixture was incubated at 37° C. Aliquots (50 μL) of the reaction mixture were taken at 5, 15 and 45 minutes post addition of the tested compound, mixed with ice-cold acetonitrile (100 μL) and centrifuged. The supernatant was analyzed by LCMS (System E).

[4] = Microsomal stability assay, rhesus liver microsomes; type: in vitro ADME
Protocol: as §1, with “E). The radiolabeled tracers [^18F][A] and [^18F][A]-d2 (n=3) were incubated with human, rhesus or mouse liver microsome suspension with or without NADPH at 37° C. and the mixture was analyzed for a presence of radioactive metabolites at 5, 15 and 45 min. In the presence of mouse and rhesus liver microsomes, both the [^18F][A] and [^18F][A]-d2 metabolized rapidly to ^18F-fluoride (retention time (rt)=0.38 min), and two radioactive metabolites M2 and M1 (rt=1.2 and 1.4 min). […]” for “E).”

[5] = test system: tau (NFTs) in human brain tissues; assay: Autoradiography on postmortem human brain tissues; type: binding
Protocol: Autoradiography The tracer [^18F][A] or [^18F][A]-d2 was dissolved in PBS containing 5% DMSO and 5% ethanol at final concentration 40 μCi/mL. Then 0.5 ml of stock solution was transferred to a microscope slide with 5 μm thick freshly dried section of a tissue and incubated for 90 min at room temperature. The slides were washed by dipping into following solutions: PBS for 1 min, 70% ethanol 2 min, 30% ethanol 2 min and PBS 1 min. The samples were dried at room temperature for 30 min and exposed to phosphorimager plate for 20 h. The exposed plates were scanned at 25 μm resolution.
Autoradiographic evaluation of [^18F][A] and [^18F][A]-d2 was performed using brain tissues collected postmortem from human donors. […] The positive staining was found in grey matter of tissues containing high level of NFTs and high AD-amyloid characterized as Braak score 5. […] The NFT and Aβ-amyloid burden was measured by standard immunohistochemical methods.

[6] = Dynamic microPET imaging in mice; type: in vivo, mice (C57BL/6)
Protocol: MicroPET Imaging The PET imaging was performed on Inveon PET/CT scanner (Siemens Medical Solutions USA Inc.). Animals anesthetized with sevoflurane were placed head-first, prone position on the scanner bed and dynamic 45 min scans were initiated. Approximately 3.7 MBq of ^18F-radiolabeled tracer in isotonic solution (100-130 μL) was administered as 60 second intravenous infusion via the tail vein. Body temperature was measured by a rectal probe and maintained with warm air flow at 37° C. Full-body iterative image reconstructions were obtained using maximum a posteriori algorithm (MAP, hyperparameter β 0.05) and corrected for signal attenuation using the tissue density obtained from CT. Projections were created with PMOD 3.305 (PMOD Technologies, Ltd., Zurich, Switzerland) and used to obtain quantitative activity levels in each organ of interest using region-of-interest analysis.

Row | SMILES | Kd ([1]; AD patient tissues, read-out: affinity for tau aggregates in AD patient tissues) | selectivity for tau over Aβ amyloid [1] | fraction attributed to parent compound ([2]; radiolabeled, 45 min incubation, n=3) | amount of parent compound ([3]; radiolabeled, n=3) | stability of parent compound compared with mouse liver microsomes [4] | staining of negative control tissues ([5]; high or moderate amyloid burden but no NFTs, Braak score 3 or 2) | autoradiographic binding pattern ([5]; human brain tissues, positive staining in grey matter with high NFTs, Braak score 5) | uptake in liver and kidneys, comparison of the two tracers ([6]; n=6) | peak uptake in brain ([6]; n=6, i.v., dynamic PET) | amount of remaining compound [2] | fraction of unmetabolized compound [3] | bone uptake ([6]; n=6, 30-45 min post tracer injection)
1 | [18F]CCC1CCN(c2ccn3c(n2)nc2ccccc23)CC1 [[^18F][A], 2-(1-(benzo[4,5]imidazo[1,2-a]pyrimidine-2-yl)piperidin-4-yl)-1-[^18F]fluoroethane, reference compound] | 22 nM | 27 fold | 35.7±0.9% | 1.6±0.9% | slightly more stable | not positively stained | tau specific binding patterns | indistinguishable | 8.3±2.0 % ID/g |  |  | 
2 | FCCC1CCN(c2ccn3c(n2)nc2ccccc23)CC1 [[A], 2-(1-(benzo[4,5]imidazo[1,2-a]pyrimidine-2-yl)piperidin-4-yl)-1-fluoroethane, reference compound] |  |  |  |  |  |  |  |  |  | 15% | 2% | 31.2±4.8 % ID/g
3 | [2H]C([2H])(F)CC1CCN(c2ccn3c(n2)nc2ccccc23)CC1 [[A]-d2, 1,1-dideutero-2-(1-(benzo[4,5]imidazo[1,2-a]pyrimidine-2-yl)piperidin-4-yl)-1-fluoroethane] |  |  |  |  |  |  |  |  |  | 56% | 11% | 
